Reference: ChEMBL document CHEMBL3430912, “GSK Tres Cantos Anti-Kinetoplastid Screening (TCAKS) Data”
pIC50: −log10 of the molar value.

Experiments:
[1] = test system: Trypanosoma brucei brucei; assay: GSK_TCAKS: pIC50 Trypanosoma brucei viability assay using luminiscence. Assay plates (1536-well) were prepared. T. brucei cultures were harvested and counted in a CASY cell counter. A parasite suspension was prepared at a final concentration of 5 * 10^4 cells/mL in complete HMI9 medium and 6uL was dispensed to all wells containing compounds using a Multidrop Combi dispenser. 6uL of HMI9 media with 0.4% DMSO were dispensed to control columns. Plates were incubated for 24 h at 37C, 5% CO2 then tempered for 10 min at room temperature. ATP content was quantified by adding 4 uL of CellTiter-Glo Reagent (Promega) according to the manufacturer's instructions. Luminescence was measured using a ViewLux.; type: functional, organism-based; conditions: Lister 427, CASY
Trypanosoma cruzi [2] = assay: GSK_TCAKS: pIC50 Trypanosoma cruzi viability assay using beta-GAL activity. This assay was run at single shot at 5uM compound concentration per well. The biological reagents consisted of NIH-3T3 host cells and trypomastigotes parasitic cells; both cell types were set to a 3.3 * 10^5 cells/mL dilution in assay DMEM by means of a CASY cell counter device using a 60um capillary. 6 uL of the mixture were dispensed per well (about 1 * 10^3 host-cells and 1 * 10^3 parasites) with a Multidrop Combi dispenser. […] In all wells, the percentage of DMSO never exceeded 0.5%. Plates incubated for four days at 37C, 5% CO2. The substrate used for the assay fluorescence intensity (FLINT) readout was resorufin-beta-D-galactopiranoside (Sigma-Aldrich) at 5uM per well. It was diluted in PBS supplemented with the soft detergent Igepal (Fluka).; type: functional, organism-based, Mus musculus; conditions: Tulahuen, NIH3T3
Leishmania donovani [3] = assay: GSK_TCAKS: pIC50 Leishmania donovani viability assay using fluorescence intensity. Assay plates (1536-well) were prepared by adding 30nL per well of compound. For single shot assay, the final compound concentration was 5uM. […] Briefly, eGFP LdBOB axenic amastigotes were harvested, fixed and counted in a CASY cell counter (Roche-Applied Science). A final concentration of 1.5 * 10^5 cells per well were prepared in amastigote media containing 500 U/mL penicillin/streptomycin (Invitrogen) and 6uL was dispensed to each experimental well using a Multidrop Combi dispenser (Thermo Scientific). 6uL of assay media was dispensed to control columns used as reference for 100% compound response. Following incubation for 72 h at 37C, 5% CO2, 2 uL of resazurin was added to each well at a final concentration of 0.5 mM in phosphate buffered saline (PBS) with IGEPAL (Sigma-Aldrich), 0.05% (v/v).; type: functional, organism-based
Leishmania donovani [4] = assay: GSK_TCAKS: pIC50 Leishmania donovani Imaging: THP-1 Host Macrophages. Assay plates (384-well) were prepared by adding 250nL of compound to each well. For single shot assay, the final compound concentration was 5 uM. […] Automated image analysis was performed with a script developed on Acapella High Content Imaging and Analysis Software (PerkinElmer). Output: THP-1 cell count were reported for each well.; type: functional, organism-based, Homo sapiens
[5] = test system: Trypanosoma brucei brucei; assay: GSK_TCAKS: pIC50 Trypanosoma brucei viability assay using fluorescence intensity. Assay plates (1536-well) were prepared by dispensing 25nL of compound solution per well using an Echo acoustic dispenser (Labcyte).; type: functional, organism-based; conditions: Lister 427, 2 h
Leishmania donovani [6] = assay: GSK_TCAKS: pIC50 Leishmania donovani Imaging: Amastigotes/Macrophages. Assay plates (384-well) were prepared by adding 250nL of compound to each well. For single shot assay, the final compound concentration was 5 uM. […] Automated image analysis was performed with a script developed on Acapella High Content Imaging and Analysis Software (PerkinElmer). Output: Average number of amastigotes per macrophage cell were reported for each well.; type: functional, organism-based, Homo sapiens; conditions: THP-1
Trypanosoma cruzi [7] = assay: (§1) GSK_TCAKS: pIC50 H2C9 Imaging: H9c2 Host Cardiomyocytes. […] Cells were then washed once with PBS before infection. T. cruzi trypomastigotes, collected at days 5 to 8 after infection from LLC-MK2 parasite infected cultures, were allowed to swim out for 4h at 37C from a centrifuged pellet (2,500 rpm/10 min/room temperature). Trypomastigotes were then collected and counted in a CASY Cell Counter. Trypomastigotes, in supplemented DMEM, were added to H9c2 cultures in a multiplicity of infection of 1 and incubated for 18 h. Cells were washed once with PBS before incubation of the infected H9c2 monolayer with trypsin (Life-Technologies) to detach cells from the flask. Cells were counted in a CASY Cell Counter using a 150 um capillary and their density set at 5 * 10^4 cells per mL in supplemented assay DMEM. Infected H9c2 were dispensed into 384-well poly-lysine coated assay plates at 50uL per well using a Multidrop Combi dispenser. After seeding them, the plates were incubated at 37C, 5% CO2 for 72h. Cultures were then fixed and stained by addition of 50 uL of a solution containing 8% formaldehyde and 4 uM DRAQ5 DNA dye (BioStatus, UK) per well. […] Five images were collected per well for reliable statistical analysis. Automated image analysis was performed with a script developed on Acapella High Content Imaging and Analysis Software (PerkinElmer). Output: Number of H9c2 Host Cardiomyocytes nuclei to determine drug-related cytotoxicity.; type: functional, organism-based, Rattus norvegicus; conditions: H9c2, 4 h
[8] = GSK_TCAKS: pIC50 HepG2 human cell line viability assay using luminiscence. […] Seeding density was checked to ensure that new mono-layers were not more than 50% confluent at the time of harvesting. Cell suspension was added to 500 mL of the same medium at a final density of 1.2 * 10^5 cells/mL. This cell suspension was dispensed (25 uL, 3000 cells per well) into 384-well clear-bottom plates using a Multidrop Combi dispenser. Prior to addition of the cell suspension, the screening compounds (250 nL) were pre-dispensed into the plates with an Echo liquid handler. Plates were incubated for 48 h at 37C, 5% CO2. After incubation, plates equilibrated at room temperature for 30 min before proceeding to develop the luminescent signal. The signal developer, CellTiter-Glo Reagent, was allowed to equilibrate at room temperature for 30 min and added to the plates (25uL per well) using a Multidrop Combi dispenser. Plates were left for 10 min at room temperature for stabilization and then read using a ViewLux.; type: toxicity, cell-based
Trypanosoma cruzi [9] = assay: as §1, with “Trypanosoma cruzi” for “H2C9”, “Amastigotes/Cell.” for “H9c2 Host Cardiomyocytes.”, “number” for “Number”, “amastigotes per cell as infection level measurement.” for “H9c2 Host Cardiomyocytes nuclei to determine drug-related cytotoxicity.”; type: functional, organism-based, Rattus norvegicus; conditions: H9c2, 4 h
Trypanosoma cruzi [10] = assay: as §1, with “Trypanosoma cruzi” for “H2C9”, “Infected Cells.” for “H9c2 Host Cardiomyocytes.”, “percentage” for “Number”, “infected cells per well as a second infection marker.” for “H9c2 Host Cardiomyocytes nuclei to determine drug-related cytotoxicity.”; type: functional, organism-based, Rattus norvegicus; conditions: H9c2, 4 h
Leishmania donovani [11] = assay: GSK_TCAKS: pIC50 Leishmania donovani Imaging: Infected Macrophages. Assay plates (384-well) were prepared by adding 250nL of compound to each well. For single shot assay, the final compound concentration was 5 uM. […] Automated image analysis was performed with a script developed on Acapella High Content Imaging and Analysis Software (PerkinElmer). Output: Percent of infected macrophage cells were reported for each well.; type: functional, organism-based, Homo sapiens; conditions: THP-1
[12] = biological target: Sterol 14-alpha demethylase (Trypanosoma cruzi (strain CL Brener), UniProt Q7Z1V1); assay: GSK_TCAKS: pIC50 CYP51 from Trypanosoma cruzi.; type: functional
Chain of Sterol 14-alpha demethylase (Q7Z1V1 whole entry): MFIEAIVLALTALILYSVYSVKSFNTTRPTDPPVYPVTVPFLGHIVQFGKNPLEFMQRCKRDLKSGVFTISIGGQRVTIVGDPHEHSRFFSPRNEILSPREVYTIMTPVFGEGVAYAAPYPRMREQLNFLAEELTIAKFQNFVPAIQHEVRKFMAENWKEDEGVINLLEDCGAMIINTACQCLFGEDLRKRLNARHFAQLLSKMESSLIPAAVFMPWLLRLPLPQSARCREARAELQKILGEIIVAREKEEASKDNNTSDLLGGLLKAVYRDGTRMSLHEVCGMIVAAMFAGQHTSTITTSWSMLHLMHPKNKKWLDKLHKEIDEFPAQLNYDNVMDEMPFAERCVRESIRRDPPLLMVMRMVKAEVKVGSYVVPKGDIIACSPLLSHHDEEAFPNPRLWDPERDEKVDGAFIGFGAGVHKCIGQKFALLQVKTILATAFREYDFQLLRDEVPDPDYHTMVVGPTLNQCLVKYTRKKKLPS

SMILES	pIC50 [1]	pIC50 (Trypanosoma cruzi [2])	pIC50 (Leishmania donovani [3])	pIC50 (Leishmania donovani [4])	pIC50 [5]	pIC50 (Leishmania donovani [6])	pIC50 (Trypanosoma cruzi [7])	IC50 at 48 h [8]	pIC50 (Trypanosoma cruzi [9])	pIC50 (Trypanosoma cruzi [10])	pIC50 (Leishmania donovani [11])	pIC50 [12]
Nc1nc(-c2ccccn2)nc(N)c1Cc1c(F)cccc1Cl	5.70	5.80	5.60	4.50	5.60	6.00	5.90	20 µM	5.80	5.70	5.90	< 4.00
Oc1cccnc1-c1nc(Cc2ccccc2)n[nH]1	5.00	5.20	5.70	4.80	5.30	5.70	4.80	79.4 µM	5.20	5.10	5.50	< 4.00
O=C(Nc1nnc(-c2ccccn2)[nH]1)C1CC1c1ccccc1 (configuration not stated)	4.70	4.80	4.90	4.70	< 4.90	5.10	< 4.30	> 100 µM	4.80	4.70	5.10	< 4.00
CCOc1ccc(NC(=O)c2ccc(NC(=O)NC3CCCCC3)cc2)cc1	6.30	4.50	< 4.30	5.40	6.70	5.20	< 4.30	> 100 µM	< 4.30	< 4.30	5.10	< 4.00
COc1ccc(S(=O)(=O)Nc2ccc(CN3CCN(C(=O)c4cccc(C#N)c4)CC3)cc2)cc1	6.20	6.00	4.50	< 4.30	6.40	< 4.30	< 4.30	> 100 µM	6.10	6.00	< 4.30	< 4.00
Cc1ccc(S(=O)(=O)Nc2ccc(CN3CCN(C(=O)c4cccc(C)c4)CC3)cc2)cc1	6.30	6.30	4.60	4.40	6.60	4.50	< 4.30	> 100 µM	6.50	6.50	4.40	4.10
Cc1ccc(Nc2nc(C3CCCN3Cc3cc[nH]n3)cs2)nc1 (configuration not stated)	5.40	6.10	4.90	4.60	6.10	5.90	5.00	31.6 µM	5.70	5.70	5.80	5.20
CC(c1ccccn1)N(C)Cc1nc2ccccc2n1C(C)C (configuration not stated)	5.00	5.80	5.00	4.80	4.90	5.70	< 4.30	25.1 µM	5.70	5.20	5.50	4.50
CC1CCCCN1C(=O)NCCc1coc(-c2ccc(F)cc2)n1 (configuration not stated)	6.80	6.40	< 4.30	< 4.30	6.90	< 4.30	< 4.30	> 100 µM	6.50	6.50	< 4.30	< 4.00
c1ccc(-c2nc(NC3CCCC3)c3ccccc3n2)nc1	5.20	5.70	5.40	4.70	5.20	5.90	6.30	15.8 µM	5.70	6.10	5.70	< 4.00
COc1cc(F)c2ncc(F)c(CCN3CC[C@H](NCc4cc5c(cn4)OCS5)[C@@H](O)C3)c2c1	6.30	6.40	4.60	4.80	6.60	4.90	< 4.30	50.1 µM	6.70	6.60	4.80	4.50
